Results reported in patent US20150141381A1, “TETRACYCLINE COMPOUNDS HAVING TARGET THERAPEUTIC ACTIVITIES” (Paratek Pharmaceuticals, Inc., priority 2001, published 2015).
Read-outs that look alike come from different tables or passages of the source.

What was measured:
S. aureus RN450 = test: In Vitro Anti-Bacterial Activity Assay (MIC), gram positive; format: cell-based; conditions: for MIC: Staphylococcus aureus, RN450, 18 h
E. coli mL308 225 = test: In Vitro Anti-Bacterial Activity Assay (MIC), gram negative; format: cell-based; conditions: for MIC: Escherichia coli, ML308225, 18 h
[1] = gram positive bacteria, read-out: Antibiotic Activity Gram + (MIC)
[2] = gram negative bacteria, read-out: Antibiotic Activity Gram − (MIC)
[3] = MIC class, Table 3, read-out: Antibiotic Activity Gram +
[4] = MIC class, Table 3, read-out: Antibiotic Activity Gram −

Structure (SMILES) | MIC (S. aureus RN450; [1]) | MIC (E. coli mL308 225; [2]) | MIC (S. aureus RN450; [3]) | MIC (E. coli mL308 225; [4]) | other results
CC(C)Cc1ccc(O)c2c1C[C@H]1C[C@H]3[C@H](N(C)C)C(O)=C(C(N)=O)C(=O)[C@@]3(O)C(O)=C1C2=O | < 4 mg/L | < 4 mg/L |  |  | 
Cc1ccc(C#Cc2ccc(O)c3c2C[C@H]2C[C@H]4[C@H](N(C)C)C(O)=C(C(N)=O)C(=O)[C@@]4(O)C(O)=C2C3=O)cc1 |  |  |  |  | MIC (S. aureus RN450; MIC class, Table 3 (Continued), read-out: Gram+ activity): < 4 mg/L; MIC (E. coli mL308 225; MIC class, Table 3 (Continued), read-out: Gram− activity): < 4 mg/L
CN(C)[C@@H]1C(O)=C(C(N)=O)C(=O)[C@@]2(O)C(O)=C3C(=O)c4c(O)c(CN5CCCCC5)cc(-c5ccoc5)c4C[C@H]3C[C@@H]12 [drawing 3602] | < 4 mg/L | > 4 mg/L |  |  | 
COc1cccc(CCc2ccc(O)c3c2C[C@H]2C[C@H]4[C@H](N(C)C)C(O)=C(C(N)=O)C(=O)[C@@]4(O)C(O)=C2C3=O)c1 [BK] |  |  | < 4 mg/L | > 4 mg/L | 
CN(C)CCC(=O)c1cc(C(C)(C)C)c(O)c2c1C[C@H]1C[C@H]3[C@H](N(C)C)C(O)=C(C(N)=O)C(=O)[C@@]3(O)C(O)=C1C2=O | < 4 mg/L | < 4 mg/L |  |  | 
CN(C)[C@@H]1C(O)=C(C(N)=O)C(=O)[C@@]2(O)C(O)=C3C(=O)c4c(ccc(NC5CCNCC5)c4O)C[C@H]3C[C@@H]12 [LE] |  |  | > 4 mg/L | > 4 mg/L | 
C[C@H]1c2ccc(CNCCC(F)(F)F)c(O)c2C(=O)C2=C(O)[C@]3(O)C(=O)C(C(N)=O)=C(O)[C@@H](N(C)C)[C@@H]3[C@@H](O)[C@@H]21 | < 4 mg/L | < 4 mg/L |  |  | 
Cc1ccc(O)c2c1C[C@H]1C[C@H]3[C@H](N(C)C)C(O)=C(C(N)=O)C(=O)[C@@]3(O)C(O)=C1C2=O | < 4 mg/L | < 4 mg/L |  |  | 
CN(C)c1cc(CNNCC(F)(F)F)c(O)c2c1C[C@H]1C[C@H]3[C@H](N(C)C)C(O)=C(C(N)=O)C(=O)[C@@]3(O)C(O)=C1C2=O | < 4 mg/L | > 4 mg/L |  |  | 
CCCNCc1ccc(OC)c(-c2ccc(O)c3c2C[C@H]2C[C@H]4C(N(C)C)C(O)=C(C(N)=O)C(=O)[C@@]4(O)C(O)=C2C3=O)c1 (stereo partly shown) [EF] |  |  | < 4 mg/L | < 4 mg/L | 
CCOC(=O)Nc1cc(N(C)C)c2c(c1O)C(=O)C1=C(O)[C@]3(O)C(=O)C(C(N)=O)=C(O)[C@@H](N(C)C)[C@@H]3C[C@@H]1C2 [drawing 3364] |  |  |  |  | Antibiotic Activity Gram + (MIC) (S. aureus RN450; gram positive bacteria): ** (compounds with MIC less than or equal to 4 μg/ml are indicated with **); Antibiotic Activity Gram − (MIC) (E. coli mL308 225; gram negative bacteria): ** (compounds with MIC less than or equal to 4 μg/ml are indicated with **)
CN(C)[C@H]1C(O)=C(C(N)=O)C(=O)[C@@]2(O)C(O)=C3C(=O)c4c(O)ccc(-c5ccc(CN6CCCC6)o5)c4C[C@H]3C[C@@H]12 [LM] |  |  | < 4 mg/L | < 4 mg/L | 
CN1CCC(NCc2ccc(O)c3c2C[C@H]2C[C@H]4[C@H](N(C)C)C(O)=C(C(N)=O)C(=O)[C@@]4(O)C(O)=C2C3=O)CC1 [KY] |  |  | > 4 mg/L | > 4 mg/L | 
Cc1ccc(OC(=O)NCc2cc(N(C)C)c3c(c2O)C(=O)C2=C(O)[C@]4(O)C(=O)C(C(N)=O)=C(O)[C@@H](N(C)C)[C@@H]4C[C@@H]2C3)cc1 [FG] |  |  |  |  | MIC (S. aureus RN450; read-out: Antibiotic Activity Gram +): < 4 mg/L; MIC (E. coli mL308 225; read-out: Antibiotic Activity Gram −): > 4 mg/L
CN1CCC(N(C)c2ccc3c(c2O)C(=O)C2=C(O)[C@]4(O)C(=O)C(C(N)=O)=C(O)[C@@H](N(C)C)[C@@H]4C[C@@H]2C3)CC1 | > 4 mg/L | > 4 mg/L |  |  | 
CCCCN(c1ccc2c(c1O)C(=O)C1=C(O)[C@]3(O)C(=O)C(C(N)=O)=C(O)[C@@H](N(C)C)[C@@H]3C[C@@H]1C2)C1CCN(C)CC1 [JR] |  |  | > 4 mg/L | > 4 mg/L | 
C[C@H]1c2ccc(CNCC(C)(C)C)c(O)c2C(=O)C2=C(O)[C@]3(O)C(=O)C(C(N)=O)=C(O)[C@@H](N(C)C)[C@@H]3[C@@H](O)[C@@H]21 [drawing 3661] | > 4 mg/L | > 4 mg/L |  |  | 
CCc1cc(C(C)(C)C)c(O)c2c1C[C@H]1C[C@H]3[C@H](N(C)C)C(O)=C(C(=O)NC(C)(C)C)C(=O)[C@@]3(O)C(O)=C1C2=O | < 4 mg/L | > 4 mg/L |  |  | 
CCCOc1cccc2c1C(=O)C1=C(O)[C@]3(O)C(=O)C(C(N)=O)=C(O)[C@@H](N(C)C)[C@@H]3C[C@@H]1C2 [drawing 3578] | > 4 mg/L | > 4 mg/L |  |  | 
CN(C)c1cc(CNCC2CCOCC2)c(O)c2c1C[C@H]1C[C@H]3[C@H](N(C)C)C(O)=C(C(N)=O)C(=O)[C@@]3(O)C(O)=C1C2=O | < 4 mg/L | > 4 mg/L |  |  | 
COc1ccc(-c2ccc(O)c3c2C[C@H]2C[C@H]4[C@H](N(C)C)C(O)=C(C(N)=O)C(=O)[C@@]4(O)C(O)=C2C3=O)cc1 [drawing 3425] | < 4 mg/L | < 4 mg/L |  |  | 
CN(C)c1cc(CNc2nc(C(F)(F)F)co2)c(O)c2c1C[C@H]1C[C@H]3[C@H](N(C)C)C(O)=C(C(N)=O)C(=O)[C@@]3(O)C(O)=C1C2=O | < 4 mg/L | < 4 mg/L |  |  | 
CN(C)[C@@H]1C(O)=C(C(N)=O)C(=O)[C@@]2(O)C(O)=C3C(=O)c4c(O)ccc(C#CCNS(C)(=O)=O)c4C[C@H]3C[C@@H]12 [CM] |  |  | > 4 mg/L | > 4 mg/L | 
